ChEMBL document CHEMBL1126375, “Synthesis of chiral phosphorus mustards derived from serine” (Bioorg Med Chem Lett, 1992)
Activity calls are given as the source filed them. The rule behind the calls is not given here.

Columns and labels:
[1] = system: Tumor cell line; test: Compound was tested for in vitro activity against tumor cell lines; NA=No activity; type: functional, cell-based
[2] = system: Human immunodeficiency virus 1; test: Compound was tested for in vitro anti-human immunodeficiency virus activity; NA=No activity; type: functional, organism-based

## COC(=O)[C@@H]1CO[P@@](=O)(N(CCCl)CCCl)N1Cc1ccccc1 (stereo in doubt; 7a)
[1]
  Activity: inactive
[2]
  Activity: inactive

## COC(=O)[C@@H]1CO[P@@](=O)(N(CCCl)CCCl)N1Cc1ccccc1 (stereo in doubt; 5a)
[1]
  Activity: inactive
[2]
  Activity: inactive

## COC(=O)[C@@H]1CO[P@@](=O)(N(CCCl)CCCl)N1Cc1ccccc1 (stereo in doubt; 5b)
[1]
  Activity: inactive
[2]
  Activity: inactive

## COC(=O)[C@H]1CO[P@](=O)(N(CCCl)CCCl)N1Cc1ccccc1
[1]
  Activity: inactive
[2]
  Activity: inactive
